According to patent publication US20200407398A1, “Short Proline-Rich Lipopeptide Potentiates Minocycline and Rifampicin Against Multidrug-and Extensively Drug-Resistant Pseudomonas Aeruginosa” (priority 2018, published 2020):
Peptide text beside a SMILES is read from it. * marks the point of attachment. Palmitoyl = CCCCCCCCCCCCCCCC(=O)*

How the values were obtained:
[1] = test system: A. baumannii CAN-ICU 63169; format: cell-based
Outline: (§1)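 Read-out is visible turbidity, confirmed at 590 nm, with MIC taken as the lowest inhibitory concentration. Bacteria at 5×10^5 CFU/mL were exposed to 2-fold dilutions in Mueller-Hinton broth for 18 hours at 37° C., per CLSI guidelines.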

E. coli ATCC 25922 = format: cell-based
Outline: as §1

[2] = test system: E. coli CAN-ICU 61714 (gentamicin-resistant); format: cell-based
Outline: as §1

[3] = test system: E. coli CAN-ICU 63074 (amikacin-intermediate resistant); format: cell-based
Outline: as §1

[4] = test system: E. coli CANWARD-2011 97615 (gentamicin-, tobramycin-, ciprofloxacin-resistant) aac(3′)iia; format: cell-based
Outline: as §1

E. faecalis ATCC 29212 = format: cell-based
Outline: as §1

E. faecium ATCC 27270 = format: cell-based
Outline: as §1

K. pneumoniae ATCC 13883 = format: cell-based
Outline: as §1

P. aeruginosa ATCC 27853 = format: cell-based
Outline: as §1

[5] = test system: P. aeruginosa CAN-ICU 62308 (gentamicin-resistant); format: cell-based
Outline: as §1

[6] = test system: P. aeruginosa CANWARD-2011 96846 (gentamicin-, tobramycin-resistant); format: cell-based
Outline: as §1

[7] = test system: P. aeruginosa wild-type PAO1; format: cell-based
Outline: as §1

S. aureus ATCC 29213 = format: cell-based
Outline: as §1

[8] = test system: S. maltophilia CAN-ICU 62584; format: cell-based
Outline: as §1

[9] = test system: methicillin-resistant S. aureus ATCC 33592; format: cell-based
Outline: as §1

[10] = test system: methicillin-resistant S. epidermidis CAN-ICU 61589 (ceftazidime-resistant); format: cell-based; details: methicillin-resistant CAN-ICU 61589 (ceftazidime-resistant)
Outline: as §1

[11] = test system: methicillin-susceptible Staphylococcus epidermidis CANWARD-2008 81388; format: cell-based; details: methicillin-susceptible CANWARD-2008 81388
Outline: as §1

pig erythrocytes = format: cell-based
Outline: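 Washed pig erythrocytes in PBS were mixed with 2-fold serial dilutions of peptide and incubated for 1 h at 37° C. Released hemoglobin in the supernatant was read at 570 nm, with PBS and 0.1% Triton X-100 as controls. MHC was the minimum concentration giving 5% hemolysis.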

Gram-positive bacteria = assay: Microbroth dilution MIC, range over panel; format: cell-based; details: against Gram-positive bacteria of the panel
Description: The synthesized SPRLPs were evaluated for their antibacterial potency against a panel of Gram-positive and Gram-negative bacteria (Tables 2 & 3). Some of the included pathogens were collected from patients visiting or admitted to participating Canadian hospitals through the CAN-ICU (27) and CANWARD (28) national surveillance studies. Antibacterial activity was assessed using minimum inhibitory concentration (MIC) against various clinical pathogens.
(§2) Microbroth dilution susceptibility test following the Clinical and Laboratory Standards Institute (CLSI) guidelines (32) was performed to assess the in vitro antibacterial activity of SPRLPs. Overnight grown bacterial cultures were diluted in saline to achieve a 0.5 McFarland turbidity, followed by 1:50 dilution in Mueller-Hinton broth (MHB) for inoculation to a final concentration of 5×10^5 colony forming units/mL. The assay was done on a 96-well plate to which the agents of interest were 2-fold serially diluted in MHB and incubated with equal volumes of inoculum at 37° C. for 18 hours. MIC was determined as the lowest concentration to inhibit visible bacterial growth in form of turbidity, which was confirmed using EMax Plus microplate reader (Molecular Devices, USA) at a wavelength of 590 nm. The well containing MHB broth with or without bacterial cells was used as positive or negative control, respectively.

[12] = test system: P. aeruginosa PAO1 (wild-type); assay: microbe, parasite or virus in culture; details: Pseudomonas aeruginosa, PAO1, read-out: MIC (agent alone)
Description: (§3) We evaluated the activity of SPRLPs in combination with fifteen clinically-used antibiotics against P. aeruginosa. Antibiotics tested included fluoroquinolones (moxifloxacin, ciprofloxacin and levofloxacin), aminoglycosides (gentamicin, tobramycin and amikacin), cephalosporins (ceftazidime and cefotaxime), carbapenems (meropenem and doripenem), aztreonam, rifampicin, minocycline, colistin and fosfomycin. The SPRLPs were screened initially at a fixed concentration of 8 μg/mL (5 μM) in combination with antibiotics against wild-type P. aeruginosa PAO1. We assessed potentiation by at least a four-fold absolute MIC reduction of the antibiotic, after which synergism was further validated by a conventional checkerboard assay. A fractional inhibitory concentration (FIC) index of ≤0.5, 0.5<x≤4 or >4 was interpreted as synergistic, indifferent or antagonistic interaction, respectively (31). FIC index was obtained by adding the FIC values of the antibiotic and the SPRLP adjuvant. FIC of antibiotics was calculated by dividing the MIC of the antibiotic in the presence of the adjuvant by the MIC of the antibiotic alone. Similarly, the FIC of adjuvant was calculated via dividing the MIC of the adjuvant in the presence of the antibiotic by the MIC of the adjuvant alone.
as §2
(§4) The assay was performed on a 96-well plate, to which the agents of interest was 2-fold serially diluted in working MHB. Prior to serial dilution, SPRLP was added to the working MHB media so that a fixed final concentration of 8 μg/mL (5 μM) SPRLP per well was achieved. To ensure that the assay was working, the MIC determination test of the studied antibiotic (without SPRLP) was included on the same plate. Similar MIC results between the assay comparator and an independent MIC determination test (on a different plate) ensured validity of the synergy test. Overnight grown bacterial cultures were diluted in saline to 0.5 McFarland turbidity, followed by 1:50 dilution in MHB (without SPRLP) and inoculation into each well to a final concentration of approximately 5×10^5 colony forming units/mL. Wells containing only MHB (without SPRLP) with or without bacterial cells were used as positive or negative control, respectively. The plate was then incubated at 37° C. for 18 hours and examined for visible turbidity, to which was confirmed using EMax Plus microplate reader (Molecular Devices, USA) at a wavelength of 590 nm. A 4-fold or more MIC reduction of antibiotic in the presence of 8 μg/mL (5 μM) SPRLP denoted a positive synergy result and was further validated by a checkerboard assay.
The assay was done on a 96-well plate as previously described (40, 41). The agent of interest was 2-fold serially diluted along the x-axis, while the adjuvant was 2-fold serially diluted along the y-axis to create a matrix in which each well consist of a combination of both at different concentrations.

[13] = test system: P. aeruginosa 100036 (MDR/XDR); assay: microbe, parasite or virus in culture; details: Pseudomonas aeruginosa, read-out: MIC (agent alone)
Description: as §3
(§5) Isolates used in this study were either obtained from the American Type Culture Collection (ATCC), the Canadian National Intensive Care Unit (CAN-ICU) surveillance study (27) or the Canadian Ward Surveillance (CANWARD) study (28). Clinical isolates belonging to the CAN-ICU and CANWARD studies were recovered from patients suffering a presumed infectious disease entering or admitted in a participating medical center across Canada during the time of study. MDR P. aeruginosa strains in this study refer to those that are resistant to aminoglycosides, fluoroquinolones, cephalosporins, and carbapenems while XDR strains are those that are resistant to aminoglycosides, fluoroquinolones, cephalosporins, carbapenems, aztreonam and penicillin+β-lactamase inhibitor combination (39, 40).
as §2
as §4, with “respectively.” for “respectively. The plate was then incubated at 37° C. for 18 hours and examined for visible turbidity, to which was confirmed using EMax Plus microplate reader (Molecular Devices, USA) at a wavelength of 590 nm. A 4-fold or more MIC reduction of antibiotic in the presence of 8 μg/mL (5 μM) SPRLP denoted a positive synergy result and was further validated by a checkerboard assay.”

[14] = test system: P. aeruginosa 101243 (colistin-resistant, MDR/XDR); assay: microbe, parasite or virus in culture; details: antibiotic or lipopeptide alone
Description: as §3, §5, §2
as §4, with “respectively.” for “respectively. The plate was then incubated at 37° C. for 18 hours and examined for visible turbidity, to which was confirmed using EMax Plus microplate reader (Molecular Devices, USA) at a wavelength of 590 nm. A 4-fold or more MIC reduction of antibiotic in the presence of 8 μg/mL (5 μM) SPRLP denoted a positive synergy result and was further validated by a checkerboard assay.”

[15] = test system: P. aeruginosa 101885 (MDR/XDR); assay: microbe, parasite or virus in culture; details: Pseudomonas aeruginosa, read-out: MIC (agent alone)
Description: as §3, §5, §2
as §4, with “respectively.” for “respectively. The plate was then incubated at 37° C. for 18 hours and examined for visible turbidity, to which was confirmed using EMax Plus microplate reader (Molecular Devices, USA) at a wavelength of 590 nm. A 4-fold or more MIC reduction of antibiotic in the presence of 8 μg/mL (5 μM) SPRLP denoted a positive synergy result and was further validated by a checkerboard assay.”

[16] = test system: P. aeruginosa 259-96918 (MDR/XDR); assay: microbe, parasite or virus in culture; details: Pseudomonas aeruginosa, read-out: MIC (agent alone)
Description: as §3, §5, §2
as §4, with “respectively.” for “respectively. The plate was then incubated at 37° C. for 18 hours and examined for visible turbidity, to which was confirmed using EMax Plus microplate reader (Molecular Devices, USA) at a wavelength of 590 nm. A 4-fold or more MIC reduction of antibiotic in the presence of 8 μg/mL (5 μM) SPRLP denoted a positive synergy result and was further validated by a checkerboard assay.”

[17] = test system: P. aeruginosa 260-97103 (MDR/XDR); assay: microbe, parasite or virus in culture; details: Pseudomonas aeruginosa, read-out: MIC (agent alone)
Description: as §3, §5, §2
as §4, with “respectively.” for “respectively. The plate was then incubated at 37° C. for 18 hours and examined for visible turbidity, to which was confirmed using EMax Plus microplate reader (Molecular Devices, USA) at a wavelength of 590 nm. A 4-fold or more MIC reduction of antibiotic in the presence of 8 μg/mL (5 μM) SPRLP denoted a positive synergy result and was further validated by a checkerboard assay.”

[18] = test system: P. aeruginosa 262-101856 (MDR/XDR); assay: microbe, parasite or virus in culture; details: Pseudomonas aeruginosa, read-out: MIC (agent alone)
Description: as §3, §5, §2
as §4, with “respectively.” for “respectively. The plate was then incubated at 37° C. for 18 hours and examined for visible turbidity, to which was confirmed using EMax Plus microplate reader (Molecular Devices, USA) at a wavelength of 590 nm. A 4-fold or more MIC reduction of antibiotic in the presence of 8 μg/mL (5 μM) SPRLP denoted a positive synergy result and was further validated by a checkerboard assay.”

[19] = test system: P. aeruginosa 264-104354 (MDR/XDR); assay: microbe, parasite or virus in culture; details: Pseudomonas aeruginosa, read-out: MIC (agent alone)
Description: as §3, §5, §2
as §4, with “respectively.” for “respectively. The plate was then incubated at 37° C. for 18 hours and examined for visible turbidity, to which was confirmed using EMax Plus microplate reader (Molecular Devices, USA) at a wavelength of 590 nm. A 4-fold or more MIC reduction of antibiotic in the presence of 8 μg/mL (5 μM) SPRLP denoted a positive synergy result and was further validated by a checkerboard assay.”

[20] = test system: P. aeruginosa 91433 (colistin-resistant, MDR/XDR); assay: microbe, parasite or virus in culture; details: Pseudomonas aeruginosa, read-out: MIC (agent alone)
Description: as §3, §5, §2
as §4, with “respectively.” for “respectively. The plate was then incubated at 37° C. for 18 hours and examined for visible turbidity, to which was confirmed using EMax Plus microplate reader (Molecular Devices, USA) at a wavelength of 590 nm. A 4-fold or more MIC reduction of antibiotic in the presence of 8 μg/mL (5 μM) SPRLP denoted a positive synergy result and was further validated by a checkerboard assay.”

CCCCCCCCCCCCCCCC(=O)N1CCC[C@H]1C(=O)N[C@@H](CCCNC(=N)N)C(=O)N1CCC[C@H]1C(=O)N[C@@H](Cc1c[nH]c2ccccc12)C(=O)N1CCC[C@H]1C(=O)N[C@@H](CCCNC(=N)N)C(=O)N1CCC[C@H]1C(N)=O [Compound C16-PWP, CH3(CH2)14CO-PRPWPRP-NH2] (Palmitoyl-PRPWPRP-NH2)
MIC [1]: 64 µg/mL | MIC (E. coli ATCC 25922): 32 µg/mL | MIC [2]: 32 µg/mL | MIC [3]: 16 µg/mL | MIC [4]: 64 µg/mL | MIC (E. faecalis ATCC 29212): 8 µg/mL | MIC (E. faecium ATCC 27270): 8 µg/mL | MIC (K. pneumoniae ATCC 13883): 64 µg/mL | MIC (P. aeruginosa ATCC 27853): 64 µg/mL | MIC [5]: 64 µg/mL | MIC [6]: 64 µg/mL | MIC [7]: 32 µg/mL | MIC (S. aureus ATCC 29213): 8 µg/mL | MIC [8]: 64 µg/mL | MIC [9]: 8 µg/mL | MIC [10]: 8 µg/mL | MIC [11]: 4 µg/mL | MHC (minimum concentration that resulted in 5% red blood cell hemolysis) (pig erythrocytes): 16 µg/mL | MIC range (Gram-positive bacteria): 4 to 8 µg/mL

CN(C)c1ccc(O)c2c1C[C@H]1C[C@H]3[C@H](N(C)C)C(O)=C(C(N)=O)C(=O)[C@@]3(O)C(O)=C1C2=O [minocycline]
MIC [12]: 8 µg/mL | MIC [13]: 16 µg/mL | MIC (agent alone) ([14]; P. aeruginosa 101243 (colistin-resistant)): 4 µg/mL | MIC ([14]; Pseudomonas aeruginosa, read-out: MIC (agent alone), P. aeruginosa 101243 (colistin-resistant)): 2 µg/mL | MIC [15]: 16 µg/mL | MIC [16]: 16 µg/mL | MIC [17]: 16 µg/mL | MIC [18]: 64 µg/mL | MIC [19]: 32 µg/mL | MIC [20]: 32 µg/mL
